Molecular target: T1, Leukotriene A-4 hydrolase (Homo sapiens, UniProt P09960)
T1 sequence (P09960 whole entry): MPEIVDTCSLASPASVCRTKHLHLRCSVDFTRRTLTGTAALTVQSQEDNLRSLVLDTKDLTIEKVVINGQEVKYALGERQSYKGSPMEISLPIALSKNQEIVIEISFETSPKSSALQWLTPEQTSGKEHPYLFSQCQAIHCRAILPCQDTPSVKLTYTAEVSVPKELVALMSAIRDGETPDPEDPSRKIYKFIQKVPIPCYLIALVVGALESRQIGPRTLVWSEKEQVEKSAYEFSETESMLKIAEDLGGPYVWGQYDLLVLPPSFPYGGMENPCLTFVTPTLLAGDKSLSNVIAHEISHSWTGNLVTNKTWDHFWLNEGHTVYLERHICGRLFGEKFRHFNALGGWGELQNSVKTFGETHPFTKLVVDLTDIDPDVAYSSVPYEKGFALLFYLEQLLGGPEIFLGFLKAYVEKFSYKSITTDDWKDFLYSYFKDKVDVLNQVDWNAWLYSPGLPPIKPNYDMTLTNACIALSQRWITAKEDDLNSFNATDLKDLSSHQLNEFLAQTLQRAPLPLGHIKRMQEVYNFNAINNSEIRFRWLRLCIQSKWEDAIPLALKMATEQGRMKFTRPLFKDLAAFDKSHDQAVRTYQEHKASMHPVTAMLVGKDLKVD
Test: Activation of N-terminal (His)6 and Xpress-tagged LTA4H (unknown origin) expressed in Escherichia coli BL21(DE3) cells assessed as increase in aminopeptidase activity by measuring p-nitroanilide release using L-Alanine-p-nitroanilide incubated for 10 mins by UV plate reader based assay

- AC50: 69 µM
SMILES: Nc1nc(-c2ccc(Cc3cccc(C(F)(F)F)c3)cc2)cs1
